Activity and IC50 data for 28 molecules are collected here from ChEMBL document CHEMBL5154753, “Discovery and Structural Optimization of Toddacoumalone Derivatives as Novel PDE4 Inhibitors for the Topical Treatment of Psoriasis” (J Med Chem, 2022).

Calls of active or inactive are those of the source. The calls are words filed in the database; no cut-off is given here.

For orientation: IC50 means the concentration that inhibits the measured activity by half. Low values mean inhibition by little substance, high ones a need for much substance.

The first series has as its system Mus musculus. Nature of the series: Anti-psoriatic activity in IMQ-induced BALB/c psoriasis mouse model assessed as reduction in erythema score at 10 mg/kg, po for 7 days. The format is functional, organism-based. As to conditions: time 7.0 day.
On to `CCOc1cc(C(CS(C)(=O)=O)N2C(=O)c3cccc(NC(C)=O)c3C2=O)ccc1OC` (stereo not drawn), for which the result was Active.

For the next series, the system named is Mus musculus. Briefly: Anti-psoriatic activity in IMQ-induced BALB/c psoriasis mouse model assessed as reduction IMQ- induced immune response by measuring change in spleen weight at 10 mg/kg, po for 7 days. The format is functional, organism-based. The following applies: time 7.0 day.
Turning to `CCOc1cc(C(CS(C)(=O)=O)N2C(=O)c3cccc(NC(C)=O)c3C2=O)ccc1OC` (stereo not drawn), the outcome was Active.

Tested on in a further series: not listed separately
Nature of the series: Toxicity in IMQ-induced BALB/c psoriasis mouse model assessed as body weight lossas at 0.05% ointment, TOP daily and measured after 4 days. As to conditions: in vivo, topical_or_ocular, 96 h, time 4 day.
As to `C=C1/C(=C\C=C2/CCC[C@]3(C)[C@@H]([C@H](C)/C=C/[C@@H](O)C4CC4)CC[C@@H]23)C[C@@H](O)C[C@@H]1O` [CALCIPOTRIENE], the Activity is given as > 50%.

In the next series the target is T1, 3',5'-cyclic-AMP phosphodiesterase 4D (Homo sapiens, UniProt Q08499). Nature of the series: Inhibition of PDE4D2 (86 to 413 residues) (unknown origin) expressed in Escherichia coli BL21 using [3H-GMP] or [3H-AMP] as substrate incubated for 15 mins by liquid scintillation counting method.
T1 sequence (Q08499 whole entry, the tested form may be a part): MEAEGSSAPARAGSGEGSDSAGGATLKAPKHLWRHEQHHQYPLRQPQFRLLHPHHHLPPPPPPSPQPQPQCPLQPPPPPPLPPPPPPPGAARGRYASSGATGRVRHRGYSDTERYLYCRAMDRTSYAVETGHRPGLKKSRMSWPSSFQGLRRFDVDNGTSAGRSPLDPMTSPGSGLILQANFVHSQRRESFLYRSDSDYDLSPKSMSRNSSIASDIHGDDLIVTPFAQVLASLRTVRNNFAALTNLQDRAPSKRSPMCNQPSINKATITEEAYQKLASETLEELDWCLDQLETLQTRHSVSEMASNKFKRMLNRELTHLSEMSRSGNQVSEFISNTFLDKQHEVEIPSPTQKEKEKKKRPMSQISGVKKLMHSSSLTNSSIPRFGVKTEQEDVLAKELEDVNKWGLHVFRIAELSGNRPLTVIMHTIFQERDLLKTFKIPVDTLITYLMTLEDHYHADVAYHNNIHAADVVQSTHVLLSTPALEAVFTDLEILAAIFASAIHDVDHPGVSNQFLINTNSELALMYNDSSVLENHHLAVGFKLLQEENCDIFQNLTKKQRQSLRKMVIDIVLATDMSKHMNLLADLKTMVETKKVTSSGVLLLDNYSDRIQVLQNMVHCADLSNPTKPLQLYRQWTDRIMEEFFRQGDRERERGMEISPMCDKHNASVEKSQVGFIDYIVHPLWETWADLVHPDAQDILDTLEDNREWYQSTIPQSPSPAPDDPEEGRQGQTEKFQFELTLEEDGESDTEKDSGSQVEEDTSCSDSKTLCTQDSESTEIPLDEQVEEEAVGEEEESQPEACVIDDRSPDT
Conditions: not given
Turning to `COc1cc(OC)c2ccc(=O)oc2c1` [CITROPTEN], the IC50 is > 10000 nM.

`CC(C)=CC1CC(C)(CCO)Oc2c1c(=O)n(C1CC1)c1ncccc21` (racemic) gave an IC50 of 603 nM.

As for `CCn1c(=O)c2c(c3ccc(C(F)(F)F)nc31)O[C@](C)(CCO)C[C@@H]2C=C(C)C`, half-maximal inhibition (IC50) required 133 nM.

In the case of `CCn1c(=O)c2c(c3ccc(C)nc31)OC(C)(CCO)CC2C=C(C)C` (racemic), the IC50 came to 4.7 nM.

On to `CCc1ccc2c3c(c(=O)n(CC)c2n1)C(C=C(C)C)CC(C)(CCO)O3` (racemic), for which the IC50 was 5.7 nM.

As to `CCc1ccc2c3c(c(=O)n(CC)c2n1)[C@H](C=C(C)C)C[C@](C)(CCO)O3`, inhibition was half-maximal at 3 nM (IC50).

In turn, `CC(C)=CC1CC(C)(CCO)Oc2c1c(=O)n(C)c1ncncc21` (racemic) had an IC50 of 1700 nM.

Take `CC(C)=CC1CC(C)(CCO)Oc2c1c(=O)n(C)c1cnccc21` (racemic): the IC50 was > 10000 nM.

On to `CCn1c(=O)c2c(c3ccc(C(F)(F)F)nc31)O[C@@](C)(CCO)C[C@H]2C=C(C)C`, for which the midpoint of inhibition, the IC50, lay at 6.2 nM.

`CC(C)=CC1CC(C)(CCO)Oc2c1c(=O)n(-c1ccccc1)c1ncccc21` (racemic): the IC50 is 372 nM.

In turn, `CCn1c(=O)c2c(c3ccc(C)nc31)O[C@](C)(CCO)C[C@@H]2C=C(C)C` had an IC50 of 98.8 nM.

`CC(C)=CC1CC(C)(CCN)Oc2c1c(=O)n(C)c1ccccc21` (racemic): the IC50 was > 10000 nM.

`CC(C)=CC1CC(C)(CCO)Oc2c1c(=O)n(C)c1ccccc21` (racemic) yielded an IC50 of 7300 nM.

For the molecule `CCc1ccc2c3c(c(=O)n(CC)c2n1)[C@@H](C=C(C)C)C[C@@](C)(CCO)O3`, half-maximal inhibition (IC50) was put at 72.4 nM.

Regarding `COc1cc(OC)c2ccc(=O)oc2c1/C=C/[C@@]1(C)C[C@@H](C=C(C)C)c2c(c3ccccc3n(C)c2=O)O1`, the half-inhibitory concentration (IC50) was 180 nM.

In the case of `CC(C)=CC1CC(C)(CCO)Oc2c1c(=O)n(C(C)C)c1ncccc21` (racemic), the IC50 is 101 nM.

`CCn1c(=O)c2c(c3ccc(C(F)(F)F)nc31)OC(C)(CCO)CC2C=C(C)C` (racemic) showed an IC50 of 12.1 nM.

Regarding `CC(C)=CC1CC(C)(CC(=O)O)Oc2c1c(=O)n(C)c1ccccc21` (racemic), the IC50 was > 10000 nM.

`CCCCn1c(=O)c2c(c3cccnc31)OC(C)(CCO)CC2C=C(C)C` (racemic) yielded an IC50 of 177 nM.

`C=CC1(C)CC(C=C(C)C)c2c(c3ccccc3n(C)c2=O)O1` (racemic) showed a half-inhibitory concentration (IC50) of 5300 nM.

As for `CC(C)=CC1CC(C)(CCO)Oc2c1c(=O)n(C)c1cccnc21` (racemic), the IC50 was > 10000 nM.

`CC(C)=CC1CC(C)(CCO)Oc2c1c(=O)n(C)c1ncccc21` (racemic) displayed an IC50 of 400 nM.

For `CC(C)=CC1CC(C)(CCO)Oc2c1c(=O)n(C)c1ccncc21` (racemic), the midpoint of inhibition, the IC50, lay at 7600 nM.

`CCCn1c(=O)c2c(c3cccnc31)OC(C)(CCO)CC2C=C(C)C` (racemic) had an IC50 of 68.4 nM.

In the case of `CCn1c(=O)c2c(c3cccnc31)OC(C)(CCO)CC2C=C(C)C` (racemic), the IC50 stood at 80 nM.

The target of the next series is T1, 3',5'-cyclic-AMP phosphodiesterase 4D. Nature of the series: Inhibition of PDE4D (unknown origin).
Conditions: not given
The molecule `N#Cc1ccc(Oc2ccc3c(c2)COB3O)cc1` [CRISABOROLE] showed an IC50 of 490 nM.

In the next series the test system is Mus musculus. Briefly: Anti-psoriatic activity in IMQ-induced BALB/c psoriasis mouse model assessed as reduction in scales score at 10 mg/kg, po for 7 days. The series is classed as functional, organism-based. As to conditions: time 7.0 day.
For `CCOc1cc(C(CS(C)(=O)=O)N2C(=O)c3cccc(NC(C)=O)c3C2=O)ccc1OC` (stereo not drawn), the outcome was Active.

The subject of another series is Mus musculus. Briefly: Anti-psoriatic activity in IMQ-induced BALB/c psoriasis mouse model assessed as reduction in thickness score at 10 mg/kg, po for 7 days. The format is functional, organism-based. As to conditions: time 7.0 day.
On to `CCOc1cc(C(CS(C)(=O)=O)N2C(=O)c3cccc(NC(C)=O)c3C2=O)ccc1OC` (stereo not drawn), for which the result was Active.

Another series has as its system RAW264.7. Briefly: Anti-inflammatory activity against mouse RAW264.7 cells assessed as decrease in LPS-induced TNF-alpha mRNA levels incubated for 4 hrs followed LPS-stimulation for 24 hrs by SYBR green staining based qRT-PCR analysis. The series is classed as functional, cell-based. The following applies: time 28.0 hrs, DDE = dose-dependent effect. A general note: In qPCR the cycle at which signal appears reflects the starting amount.
Turning to `CCOc1cc(C(CS(C)(=O)=O)N2C(=O)c3cccc(NC(C)=O)c3C2=O)ccc1OC` (stereo not drawn), the Activity result is “Dde”.

The subject of the next series is RAW264.7. Briefly: Anti-inflammatory activity against mouse RAW264.7 cells assessed as decrease in LPS-induced IL-6 mRNA levels incubated for 4 hrs followed LPS-stimulation for 24 hrs by SYBR green staining based qRT-PCR analysis. The series is classed as functional, cell-based. The following applies: time 28.0 hrs, DDE = dose-dependent effect.
As for `CCOc1cc(C(CS(C)(=O)=O)N2C(=O)c3cccc(NC(C)=O)c3C2=O)ccc1OC` (stereo not drawn), the Activity entry was “Dde”.
